Source: article PMC11589458, “Development of bombesin-tubulysin conjugates using multicomponent chemistry to functionalize both the payload and the homing peptide” (Frontiers in Pharmacology, 2024)
Like-named read-outs stand apart in the source and are kept apart here. Peptide text beside a SMILES is read from it. * marks the point of attachment. X1 = CCCO[C@H](C[C@H](C(C)C)N(CC(=O)NCCC(C)(C)SSCCC(=O)*)C(=O)[C@@H](NC(=O)[C@H]1CCCCN1C)[C@@H](C)CC)c1nc(C(=O)N[C@@H](Cc2ccccc2)C[C@H](C)C(=O)O)cs1; X2 = CCCO[C@H](C[C@H](C(C)C)N(CC(=O)NCCSSCCC(=O)*)C(=O)[C@@H](NC(=O)[C@H]1CCCCN1C)[C@@H](C)CC)c1nc(C(=O)N[C@@H](Cc2ccccc2)C[C@H](C)C(=O)O)cs1

Assays:
[1] = test system: PC-3 (prostate cancer) cells; type: cell-based, human; conditions: 6 h
Procedure: (§1) [formula] Scheme 1 (A) Solid-phase synthesis of tubugi analogs functionalized with a thiol group at the internal amide N-substituent. WR = Wang resin. (B) Evaluation of the anti-proliferative activity: tubugi effects on cell viability, as determined by a resazurin assay for human prostate cancer PC-3 cells and human colon cancer HCT-116 cells treated for 48 h with tubugi 10a (red dots and line) and tubugi 10b (blue triangles and line). For control and data normalization, cells were routinely treated in parallel with 0.5% (v/v) DMSO (negative control), and as a positive cytotoxicity control with 100 µM digitonin (for data normalization set to 0% cell viability), both in standard growth medium.
(§2) The actual GRPR expression levels of these cell lines were checked by conducting RT-qPCR, as described in the SI. […] The cell viability and proliferation assays were carried out by using a resazurin-based fluorometric assay. The cells were exposed to the bombesin conjugates 20, 21, and 22 for initial 6 h and 48 h, and regardless of the initial incubation time, the cells were then allowed to grow until 72 h in sum were finalized, after which the cell viability was determined (see the SI).
FIGURE 2 (A) Relative human GRPR (mRNA) expression levels in the cell lines used for the flow cytometry and cell viability studies, as detected by using RT-qPCR (n = 3). Data were analyzed by conducting the ΔΔCt methodology using GAPDH as a reference gene and normalized to the GRPR expression level of non-cancerous MCF-10A breast cells as a “healthy” cell reference (set to 1.0). […] (B–D) Cell viability of human cancer (T-47D, PC-3, MDA-MB-231, and HCT-116) and non-cancer (MCF-10A) cell lines after 6 h initial treatment with the bombesin-tubugi conjugates 20 (normal disulfide), 21 (hindered disulfide), and 22 (hindered disulfide and lipidated), medium exchange and subsequent cell cultivation until finalization of 72 h, and subsequent measurement by using fluorometric resazurin assay read-out. […] Each data point was determined with 3-4 biological replicates, each with technical triplicates. […]

MDA-MB-231 (TNBC) cells = type: cell-based, human; conditions: 6 h
Procedure: as §2
(§3) FIGURE 2 (A) Relative human GRPR (mRNA) expression levels in the cell lines used for the flow cytometry and cell viability studies, as detected by using RT-qPCR (n = 3). Data were analyzed by conducting the ΔΔCt methodology using GAPDH as a reference gene and normalized to the GRPR expression level of non-cancerous MCF-10A breast cells as a “healthy” cell reference (set to 1.0). Statistical significance was tested by using an unpaired t-test (*p < 0.05). (B–D) Cell viability of human cancer (T-47D, PC-3, MDA-MB-231, and HCT-116) and non-cancer (MCF-10A) cell lines after 6 h initial treatment with the bombesin-tubugi conjugates 20 (normal disulfide), 21 (hindered disulfide), and 22 (hindered disulfide and lipidated), medium exchange and subsequent cell cultivation until finalization of 72 h, and subsequent measurement by using fluorometric resazurin assay read-out. For control and data normalization, cells were routinely treated in parallel with 0.5% (v/v) DMSO (negative control), and as a positive cytotoxicity control with 100 µM digitonin (for data normalization set to 0% cell viability), both in standard growth medium. Each data point was determined with 3-4 biological replicates, each with technical triplicates. The indicated concentrations are IC50 values as calculated based on the non-linear regression dose-response curves as drawn by using GraphPad Prism 8 software. Error bars indicate the 95% confidence interval. TEXT PRINTED IN THE PICTURE: (B) 20: T-47D (HR+ breast cancer) 594.2 nM (95% CI: 475.2 - n.d. nM); PC-3 (prostate cancer) 695.3 nM (95% CI: 595.6 - n.d. nM); MDA-MB-231 (TNBC) 626.8 nM (95% CI: 430.4 - n.d. nM); HCT-116 (colon cancer) 1,315 nM (95% CI: n.d. - 6,114 nM); MCF-10A (healthy breast) ~ 3,200 nM (95% CI: n.d.) | (C) 21: T-47D (HR+ breast cancer) 740.9 nM (95% CI: 598.2 - 950.1 nM); PC-3 (prostate cancer) 716.4 nM (95% CI: 529.4 - 997.2 nM); MDA-MB-231 (TNBC) 357.0 nM (95% CI: n.d. - 606.4 nM); HCT-116 (colon cancer) ~ 2,000 nM (95% CI: n.d.); MCF-10A (healthy breast) ~ 4,000 nM (95% CI: n.d.) | (D) 22: T-47D (HR+ breast cancer) 70.9 nM (95% CI: 39.3 - 122.4 nM); PC-3 (prostate cancer) 110.7 nM (95% CI: 66.4 - 116.8 nM); MDA-MB-231 (TNBC) 87.8 nM (95% CI: 83.3 - 148.4 nM) […]
(§4) Figure S50. Cell viability of human cancer (T-47D, PC-3, MDA-MB-231) and non-cancer (184B5) cell lines after 6 h initial treatment with the bombesin-tubugi conjugate 22 and its non-conjugated tubugi payload 10b, medium exchange and subsequent cell cultivation until finalization of 72 h, and subsequent measurement by using fluorometric resazurin assay read-out. Each data point was determined in at least 3-4 biological replicates each with technical triplicates. The indicated concentrations are IC50 values as calculated based on the non-linear regression dose-response curves as drawn by using GraphPad Prism 8 software. Error bars indicate the 95% confidence interval.
(§5) (1 picture or pasted object on this page, not shown here)

[2] = test system: HCT-116 (colon cancer) cells; test: Resazurin cell viability / anti-proliferation assay, HCT-116; type: cell-based, human; conditions: for fold higher IC50 in GRPR-lower expressing HCT-116 than in higher GRPR-expressing cancer cells: compared with T-47D (20) or T-47D and PC-3 (21); for IC50: HCT-116
Procedure: as §1, §2
(§6) FIGURE 2 (A) Relative human GRPR (mRNA) expression levels in the cell lines used for the flow cytometry and cell viability studies, as detected by using RT-qPCR (n = 3). Data were analyzed by conducting the ΔΔCt methodology using GAPDH as a reference gene and normalized to the GRPR expression level of non-cancerous MCF-10A breast cells as a “healthy” cell reference (set to 1.0). Statistical significance was tested by using an unpaired t-test (*p < 0.05). (B–D) Cell viability of human cancer (T-47D, PC-3, MDA-MB-231, and HCT-116) and non-cancer (MCF-10A) cell lines after 6 h initial treatment with the bombesin-tubugi conjugates 20 (normal disulfide), 21 (hindered disulfide), and 22 (hindered disulfide and lipidated), medium exchange and subsequent cell cultivation until finalization of 72 h, and subsequent measurement by using fluorometric resazurin assay read-out. For control and data normalization, cells were routinely treated in parallel with 0.5% (v/v) DMSO (negative control), and as a positive cytotoxicity control with 100 µM digitonin (for data normalization set to 0% cell viability), both in standard growth medium. Each data point was determined with 3-4 biological replicates, each with technical triplicates. The indicated concentrations are IC50 values as calculated based on the non-linear regression dose-response curves as drawn by using GraphPad Prism 8 software. Error bars indicate the 95% confidence interval. TEXT PRINTED IN THE PICTURE: (B) 20: T-47D (HR+ breast cancer) 594.2 nM (95% CI: 475.2 - n.d. nM); PC-3 (prostate cancer) 695.3 nM (95% CI: 595.6 - n.d. nM); MDA-MB-231 (TNBC) 626.8 nM (95% CI: 430.4 - n.d. nM); HCT-116 (colon cancer) 1,315 nM (95% CI: n.d. - 6,114 nM); MCF-10A (healthy breast) ~ 3,200 nM (95% CI: n.d.) | (C) 21: T-47D (HR+ breast cancer) 740.9 nM (95% CI: 598.2 - 950.1 nM); PC-3 (prostate cancer) 716.4 nM (95% CI: 529.4 - 997.2 nM); MDA-MB-231 (TNBC) 357.0 nM (95% CI: n.d. - 606.4 nM); HCT-116 (colon cancer) ~ 2,000 nM (95% CI: n.d.); MCF-10A (healthy breast) ~ 4,000 nM (95% CI: n.d.) | (D) 22: T-47D (HR+ breast cancer) 70.9 nM (95% CI: 39.3 - 122.4 nM); PC-3 (prostate cancer) 110.7 nM (95% CI: 66.4 - 116.8 nM); MDA-MB-231 (TNBC) 87.8 nM (95% CI: 83.3 - 148.4 nM)

[3] = test system: MCF-10A (non-cancer, healthy breast epithelium) cells; test: Resazurin cell viability assay, MCF-10A; type: cell-based, human; conditions: for fold higher IC50 in GRPR-lowest expressing healthy MCF-10A than in higher GRPR-expressing cancer cells: compared with T-47D (20) or T-47D and PC-3 (21); for IC50: MCF-10A
Procedure: as §2, §6

[4] = test system: T-47D (HR+ breast cancer) cells; type: cell-based, human; conditions: 6 h
Procedure: as §2, §3, §4, §5

[5] = test system: 184B5 (healthy breast) cells; conditions: 6 h
[6] = Resazurin cell viability assay, the three GRPR-overexpressing cancer cell lines taken together; type: cell-based, human; conditions: 6 h initial treatment; read-out: selectivity: fold higher cytotoxicity for GRPR-overexpressing cells than for healthy 184B5 cells
[7] = test system: T-47D, PC-3 and MDA-MB-231 cells; test: as above; type: cell-based, human; conditions: 6 h initial treatment
[8] = 6 h initial treatment, medium exchange, cultivation until 72 h, fluorometric resazurin read-out, 3-4 biological replicates, technical triplicates, read-out: IC50
[9] = 6 h initial treatment, read-out: IC50

In the case of CCCO[C@H](C[C@H](C(C)C)N(CC(=O)NCCSSCCC(=O)NCCCC[C@H](N)C(=O)N[C@@H](CC(N)=O)C(=O)N[C@@H](CCC(N)=O)C(=O)N[C@@H](Cc1c[nH]c2ccccc12)C(=O)N[C@@H](C)C(=O)N[C@H](C(=O)NCC(=O)N[C@@H](Cc1c[nH]cn1)C(=O)N[C@@H](CC(C)C)C(=O)N[C@@H](CCSC)C(N)=O)C(C)C)C(=O)[C@@H](NC(=O)[C@H]1CCCCN1C)[C@@H](C)CC)c1nc(C(=O)N[C@@H](Cc2ccccc2)C[C@H](C)C(=O)O)cs1 [compound 20] (H-K(X2)NQWAVGHLM-NH2), the IC50 [1] is reported as 695 nM, the IC50 (MDA-MB-231 (TNBC) cells) is reported as 627 nM and the “fold higher IC50 in GRPR-lower expressing HCT-116 than in higher GRPR-expressing cancer cells” value ([2]; 6 h initial treatment) is reported as “approximately 2 fold”. For the same compound, the IC50 [2, 8] was 1320 nM, the IC50 [2, 9] was ~1300 nM and the IC50 ([2]; 48 h initial treatment) was “nanomolar range”. For the same compound, the “fold higher IC50 in GRPR-lowest expressing healthy MCF-10A than in higher GRPR-expressing cancer cells” value ([3]; 6 h initial treatment) was ~5.5 fold, the IC50 [3, 9] was ~3200 nM and the IC50 ([3]; 48 h initial treatment) was “nanomolar range”.

In the case of CCCO[C@H](C[C@H](C(C)C)N(CC(=O)NCCC(C)(C)SSCCC(=O)NCCCC[C@H](N)C(=O)N[C@@H](CC(N)=O)C(=O)N[C@@H](CCC(N)=O)C(=O)N[C@@H](Cc1c[nH]c2ccccc12)C(=O)N[C@@H](C)C(=O)N[C@H](C(=O)NCC(=O)N[C@@H](Cc1c[nH]cn1)C(=O)N[C@@H](CC(C)C)C(=O)N[C@@H](CCSC)C(N)=O)C(C)C)C(=O)[C@@H](NC(=O)[C@H]1CCCCN1C)[C@@H](C)CC)c1nc(C(=O)N[C@@H](Cc2ccccc2)C[C@H](C)C(=O)O)cs1 [compound 21] (H-K(X1)NQWAVGHLM-NH2), the IC50 [1] is reported as 716 nM, the IC50 [4] is reported as 741 nM and the IC50 (MDA-MB-231 (TNBC) cells) is reported as 357 nM. For the same compound, the “fold higher IC50 in GRPR-lower expressing HCT-116 than in higher GRPR-expressing cancer cells” value ([2]; 6 h initial treatment) was “approximately 2.5 fold”, the IC50 [2, 8] was ~2000 nM and the IC50 ([2]; 48 h initial treatment) was “nanomolar range”. For the same compound, the “fold higher IC50 in GRPR-lowest expressing healthy MCF-10A than in higher GRPR-expressing cancer cells” value ([3]; 6 h initial treatment) was ~5.5 fold, the IC50 [3, 8] was ~4000 nM and the IC50 ([3]; 48 h initial treatment) was “nanomolar range”.

CCCCCCCCCCCCCCNC(=O)CN(CCCC[C@H](N)C(=O)N[C@@H](CC(N)=O)C(=O)N[C@@H](CCC(N)=O)C(=O)N[C@@H](Cc1c[nH]c2ccccc12)C(=O)N[C@@H](C)C(=O)N[C@H](C(=O)NCC(=O)N[C@@H](Cc1c[nH]cn1)C(=O)N[C@@H](CC(C)C)C(=O)N[C@@H](CCSC)C(N)=O)C(C)C)C(=O)CCSSC(C)(C)CCNC(=O)CN(C(=O)[C@@H](NC(=O)[C@H]1CCCCN1C)[C@@H](C)CC)[C@H](C[C@@H](OCCC)c1nc(C(=O)N[C@@H](Cc2ccccc2)C[C@H](C)C(=O)O)cs1)C(C)C [compound 22] showed an IC50 [5] of 392 nM, a selectivity ratio [6] of 3.5 to 5.5 and an IC50 ([7]; T-47D, PC-3, MDA-MB-231, read-out: IC50 (range over cell lines)) of 70 to 110 nM. For the same compound, the “fold more potent than the non-lipidated conjugates 20 and 21” value ([7]; three cancer cells overexpressing the GRPR) was 4- to 10 fold, the IC50 [1] was 111 nM and the IC50 [4] was 70.9 nM. It also gave an IC50 (MDA-MB-231 (TNBC) cells) of 87.8 nM.
